The target of test [1] is T1, KcsA-Kv1.1 T-only chimera (Streptomyces lividans, UniProt P0A334, A54E/A57S/G53E/G56E/I60S/L59F/P55A/Q58H/R52A/R64D/T61S/Y62I).
T1 sequence (P0A334 1-160 R52A/G53E/A54E/P55A/G56E/A57S/Q58H/L59F/I60S/T61S/Y62I/R64D): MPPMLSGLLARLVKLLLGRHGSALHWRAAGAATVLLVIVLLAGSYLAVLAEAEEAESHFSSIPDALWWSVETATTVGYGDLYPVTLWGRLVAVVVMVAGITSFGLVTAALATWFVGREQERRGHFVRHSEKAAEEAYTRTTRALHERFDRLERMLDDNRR
Briefly: Phage-binding competition assay, KcsA-Kv1.1 T-only. Details: species or system human Kv1.1 turret in Streptomyces lividans KcsA. The protocol: (§1) Phage stock solutions were diluted to working concentration with phage resuspension buffer supplemented with 2 mM DDM. For protein immobilization, the following amounts were used in a final volume of 50 μl/well: wt KcsA, 0.1 μg; KcsA-Kv1.1 T-only, 0.005 μg; KcsA-Kv1.1 T+F, 0.02 μg; KcsA-Kv1.2 T-only, 0.01 μg; KcsA-Kv1.2 T+F, 0.1 μg; KcsA-Kv1.3 T-only, 0.01 μg; and KcsA-Kv1.3 T+F, 0.1 μg. Protein samples were diluted in 50 μl of storage buffer (20 mM Tris pH8.0, 300 mM KCl, 2 mM DDM) and were added to the designated wells of a Pierce Clear, 96-Well Nickel Coated Plate (15442, Thermo Fisher Scientific), then incubated for 1 h at room temperature on a horizontal shaker at 130 rpm. The plate was blocked for 1 h at room temperature with 180 μl/well TBS-BSA supplemented with 1 mM DDM. Following blocking, the wells were washed 4× with washing buffer (300 μl TBS-Tween, 0.1% v/v) using a Wellwash Versa microplate washer (Thermo Fisher Scientific); then 50 μl phage solution (in TBS-BSA-Tween, 0.1% v/v, 2 mM DDM) at determined phage concentration was added to the wells and incubated for 1 h at room temperature on a horizontal shaker. The plate was washed 4× with washing buffer, then 50 μl anti-M13 IgG HRP (MA5-36125, Invitrogen) diluted to 1:2500 in TBS-Tween (0.1% v/v) was added to the wells and incubated for 1 h at room temperature. The plate was washed again 4× with 300 μl/well washing buffer. Finally, 50 μl/well 1-Step Ultra TMB-ELISA solution (34028, Thermo Fisher Scientific) was added to the wells, and the developing signal was stopped with 50 μl 1M HCl after 5 to 10 min. The light absorbance signal was read at 450 nm with Byonoy absorbance 96 plate reader (Byonoy GmbH).
(§2) For protein immobilization, the following amounts were used in a final volume of 50 μl/well: KcsA-Kv1.1 T-only, 0.005 μg; KcsA-Kv1.1 T+F, 0.01 μg; KcsA-Kv1.2 T-only, 0.025 μg; KcsA-Kv1.2 T+F, 0.0125 μg; KcsA-Kv1.3 T-only, 0.01 μg; and KcsA-Kv1.3 T+F, 0.1 μg. Protein samples were diluted in storage buffer. Binding of given concentrations of relevant ligand-displaying phages quantified by light absorbance ([…]) were investigated in a similar manner as in phage ELISA-binding assay, while different concentrations of competing toxin test substances were applied simultaneously. The results were converted to percent inhibitions (percent displacement) of the indicator phage binding, and relative affinities of the tested toxins were assessed by plotting percent displacements against log concentrations and determining half maximal inhibitory concentrations (IC50) by sigmoidal curve fitting using “Sigmoidal dose-response (variable slope) with least squares method” algorithm in GraphPad Prism 8 using the following equation: Y=Bottom+Top−Bottom/1+10^(LogEC50−×)⋅HillSlope

The target in test [2] is T2, KcsA-Kv1.1 T-only chimera (Streptomyces lividans, UniProt P0A334, R52A/G53E/A54E/P55A/G56E/A57S/Q58H/L59F/I60S/T61S/Y62I/R64D).
T2 sequence (P0A334 1-160 R52A/G53E/A54E/P55A/G56E/A57S/Q58H/L59F/I60S/T61S/Y62I/R64D): T1 sequence (P0A334 1-160 R52A/G53E/A54E/P55A/G56E/A57S/Q58H/L59F/I60S/T61S/Y62I/R64D)
Briefly: Phage-binding competition assay, KcsA-Kv1.1 T-only. Also noted: species or system human Kv1.1 turret in Streptomyces lividans KcsA. The following applies: for competition binding to KcsA-Kv1.1 T-only, in words: ShK-phage competition, native peptide, Fig. 8E (ligand-binding pattern); for Rank, T-only chimera (Kv1.1): rank by competition IC50 among ShK, KTX1, MTX. As for the experimental part: as §1, §2

The mark [3] stands for this setting: displacement of ShK-phage, KcsA-Kv1.1 T-only 0.005 μg/well on nickel-coated plate, mean ± SD (n = 3), NQ = not quantifiable, read-out: IC50, T-only chimera (Kv1.1).

Like-named read-outs stand apart in the source and are kept apart here. Where a SMILES comes first, the peptide text is derived from it.

With `CC[C@H](C)[C@H](NC(=O)[C@H](CCC(=O)O)NC(=O)[C@@H](NC(=O)CN)C(C)C)C(=O)N[C@@H](CC(N)=O)C(=O)N[C@H](C(=O)N[C@@H](CCCCN)C(=O)N[C@H]1CSSC[C@@H]2NC(=O)[C@H](CCCCN)NC(=O)CNC(=O)[C@H](Cc3ccccc3)NC(=O)[C@H](CCCNC(=N)N)NC(=O)[C@H](CCSC)NC(=O)CNC(=O)[C@H](C)NC(=O)[C@H](CC(=O)O)NC(=O)[C@H](CCCCN)NC(=O)[C@@H]3CSSC[C@@H](C(=O)N[C@H](C(=O)N4CCC[C@H]4C(=O)N[C@@H](CCCCN)C(=O)O)[C@@H](C)O)NC(=O)[C@H](Cc4c[nH]cn4)NC(=O)[C@H](CSSC[C@H](NC(=O)[C@H](CCC(N)=O)NC(=O)[C@@H]4CCCN4C(=O)[C@H](CO)NC(=O)CNC(=O)[C@H](CO)NC1=O)C(=O)N[C@@H](CC(C)C)C(=O)N[C@@H](CCCCN)C(=O)N1CCC[C@H]1C(=O)N3)NC(=O)[C@H](CCCCN)NC(=O)[C@H](CCCNC(=N)N)NC(=O)[C@H](CC(N)=O)NC(=O)[C@H](CCSC)NC2=O)C(C)C` [KTX1, Kaliotoxin-1], in test [1] (setting [3]), the IC50 came to 1.27 nM. Further, in test [2], the “competition binding to KcsA-Kv1.1 T-only, in words” value (from here on “competition binding”) is recorded as “ShK > KTX1 > MTX” and the “Rank, T-only chimera (Kv1.1)” value amounted to 2.

Consider `CC[C@H](C)[C@@H]1NC(=O)[C@@H]2CSSC[C@H](NC(=O)[C@H](CO)NC(=O)[C@@H](N)C(C)C)C(=O)N[C@@H]([C@@H](C)O)C(=O)NCC(=O)N[C@@H](CO)C(=O)N[C@@H](CCCCN)C(=O)N[C@@H](CC(=O)O)C(=O)N[C@@H](CSSC[C@@H](C(=O)N[C@@H](CCCCN)C(=O)N[C@H]3CSSC[C@@H](C(N)=O)NC(=O)CNC(=O)[C@H](Cc4ccc(O)cc4)NC3=O)NC(=O)[C@H](CO)NC(=O)[C@H](CCCCN)NC(=O)[C@H](CC(N)=O)NC1=O)C(=O)N[C@@H](Cc1ccc(O)cc1)C(=O)N[C@@H](C)C(=O)N1CCC[C@H]1C(=O)N[C@H]1CSSC[C@H](NC(=O)CNC(=O)[C@H]([C@@H](C)O)NC(=O)[C@H](CCC(N)=O)NC(=O)[C@H](CCCCN)NC(=O)[C@H](CCCNC(=N)N)NC1=O)C(=O)N1CCC[C@H]1C(=O)N[C@@H](CC(N)=O)C(=O)N[C@@H](C)C(=O)N[C@@H](CCCCN)C(=O)N2` [MTX, Maurotoxin] (HELM PEPTIDE1{V.S.C.T.G.S.K.D.C.Y.A.P.C.R.K.Q.T.G.C.P.N.A.K.C.I.N.K.S.C.K.C.Y.G.C.[am]}$PEPTIDE1,PEPTIDE1,3:R3-24:R3|PEPTIDE1,PEPTIDE1,9:R3-29:R3|PEPTIDE1,PEPTIDE1,13:R3-19:R3|PEPTIDE1,PEPTIDE1,31:R3-34:R3$$$V2.0; N-terminus and C-terminus assumed), for which the IC50 in test [1] (setting [3]) is over 1000 nM. For the same compound, in test [2], the “competition binding” value is “ShK > KTX1 > MTX” and the “Rank, T-only chimera (Kv1.1)” value is listed as 3. For the same compound, the “competition binding” value in test [2] (listed as MTX1) is recorded as “negligible binding”.

As for `CC[C@H](C)[C@@H]1NC(=O)[C@@H](NC(=O)[C@H](CO)NC(=O)[C@@H](N)CCCNC(=N)N)CSSC[C@@H](C(=O)O)NC(=O)[C@H]([C@@H](C)O)NC(=O)CNC(=O)[C@@H]2CSSC[C@@H]3NC(=O)[C@H](CCC(N)=O)NC(=O)[C@H](Cc4ccccc4)NC(=O)[C@H](C)NC(=O)[C@H]([C@@H](C)O)NC(=O)[C@H](CSSC[C@H](NC(=O)[C@H](Cc4ccccc4)NC(=O)[C@H](CO)NC(=O)[C@H](CC(C)C)NC(=O)[C@H](CCCNC(=N)N)NC(=O)[C@H](Cc4ccc(O)cc4)NC(=O)[C@H](CCCCN)NC(=O)[C@H](CCSC)NC(=O)[C@H](CO)NC(=O)[C@H](Cc4c[nH]cn4)NC(=O)[C@H](CCCCN)NC3=O)C(=O)N[C@@H](CCCNC(=N)N)C(=O)N[C@@H](CCCCN)C(=O)N[C@@H]([C@@H](C)O)C(=O)N2)NC(=O)[C@H](CCCNC(=N)N)NC(=O)[C@H](CO)NC(=O)[C@H](CCCCN)NC(=O)[C@@H]2CCCN2C(=O)[C@H]([C@@H](C)CC)NC(=O)[C@H]([C@@H](C)O)NC(=O)[C@H](CC(=O)O)NC1=O` [ShK, Stichodactyla toxin], in test [1] (ShK-phage competition, T-only KcsA-Kv1.1, value given in figure, sigmoidal fit to means of three replicates, read-out: IC50 (Fig. 8E)), the IC50 is 0.317 nM. In test [2], the “competition binding” value is on record as “ShK > KTX1 > MTX” and the “Rank, T-only chimera (Kv1.1)” value is 1.

In general, IC50 refers to the concentration needed to halve the response being measured.

The values above are taken from paper PMC11002876, “KcsA-Kv1.x chimeras with complete ligand-binding sites provide improved predictivity for screening selective Kv1.x blockers” (The Journal of Biological Chemistry, 2024).
